What all share (format): in vivo
Data set [1] deals with Plutella xylostella. Put plainly: Plutella xylostella control test, cabbage leaf disk foliar spray. To be noted: Plutella xylostella, foliar. Put shortly: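 Cabbage leaf disks (5.0 cm) were sprayed with compound in 50% acetone water with 0.05% Tween20, air-dried, then infested with second instar larvae. Disks were held at 25° C under 16 h light/8 h dark, in duplicate. Percent larval mortality was calculated as dead over total larvae.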

In data set [2] the test system is Spodoptera litura. Put plainly: Pest control test against Spodoptera litura, cabbage leaf disk foliar spray. To be noted: Spodoptera litura, foliar. The protocol:
Test Example 2 Pest Control Test Against Spodoptera litura
A leaf disk having a diameter of 5.0 cm was cut out from a cabbage in pot culture, and a drug solution of the compound of the present invention at a predetermined concentration, which had been prepared so as to be a 50% acetone water (0.05% Tween20 available), was sprayed to the leaf disk. After an air drying process, third instar larvae were released thereto. Thereafter, the larvae were left to stand in a thermostatic chamber (16 hours of light period-8 hours of dark period) at 25° C. […] Test in duplicate.
(§1) Mortality of larvae(%)={number of dead larvae/(number of survived larvae+number of dead larvae)}×100

For data set [3], the system named is Aulacophora femoralis. Put plainly: Pest control test of Aulacophora femoralis, cucumber leaf disk foliar spray. The protocol:
Test Example 4 Pest Control Test of Aulacophora femoralis
A leaf disk having a diameter of 2.8 cm was cut out from a cucumber in pot culture, and a drug solution of the compound of the present invention at a predetermined concentration, which had been prepared so as to be a 50% acetone water (0.05% Tween20 available), was sprayed to the leaf disk. After an air drying process, adults were released thereto. Thereafter, the adults were left to stand in a thermostatic chamber (16 hours of light period-8 hours of dark period) at 25° C. […] Test in duplicate.
Mortality of adults(%)={number of dead adults/(number of survived adults+number of dead adults)}×100

Data set [4] deals with Nilaparvata lugens exhibiting drug resistance to imidacloprid. In words: Foliar spray test, Nilaparvata lugens exhibiting drug resistance to imidacloprid. To be noted: 144 h, read-out: mortality of larvae. The protocol: Test Example 16 Pest Control Test of Nilaparvata lugens
A drug solution of the compound of the present invention at a predetermined concentration, which had been prepared so as to be a 50% acetone water (0.05% Tween20 available), was foliar sprayed to a rice seedling in pot culture. […] Thereafter, the larvae were left to stand in a thermostatic chamber (16 hours of light period-8 hours of dark period) at 25° C. […] Test in duplicate.
as §1
Further, for the origin of test pests, insects of Nilaparvata lugens collected outdoors within the Fukuoka prefecture in 2005 were used.

Data set [5] concerns Sogatella furcifera exhibiting drug resistance to fipronil. Put plainly: Foliar spray test, Sogatella furcifera exhibiting drug resistance to fipronil. To be noted: 96 h, read-out: mortality of larvae. The protocol:
Test Example 17 Pest Control Test of Sogatella furcifera
A drug solution of the compound of the present invention at a predetermined concentration, which had been prepared so as to be a 10% acetone water (0.05% Tween20 available), was foliar sprayed to a rice seedling in pot culture. […] Thereafter, the larvae were left to stand in a thermostatic chamber (16 hours of light period-8 hours of dark period) at 25° C. […] Test in duplicate.
as §1
Further, for the origin of test pests, insects of Sogatella furcifera collected outdoors within the city of Odawara in 2010 were used.

Data set [6] relates to imidacloprid susceptible populations of Nilaparvata lugens. In words: Soil irrigation test, imidacloprid susceptible populations of Nilaparvata lugens. Put shortly:
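Potted rice seedlings soil-irrigated with compound in 10% acetone water at set concentrations; larvae held at 25 °C, 16 h light/8 h dark. Mortality % = dead/(dead + survivors) ×100, duplicate. Susceptible population: Kagoshima-collected, long-term lab-reared.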

The subject of data set [7] is susceptible populations of Sogatella furcifera. In words: Soil irrigation test, susceptible populations of Sogatella furcifera. The protocol:
A rice seedling in pot culture was subjected to soil irrigation treatment with a drug solution of the compound of the present invention at a predetermined concentration, which had been prepared so as to be a 10% acetone water. […] Thereafter, the larvae were left to stand in a thermostatic chamber (16 hours of light period-8 hours of dark period) at 25° C. […] The test was performed in duplicate.
as §1
Further, for comparison, the test against a populations of Sogatella furcifera which is highly susceptible to fipronil was performed by the same method as described above, and the results thereof are shown in Table 44.
In addition, for the origin of test pests, bugs collected within the city of Odawara in 2010 as the drug resistant Sogatella furcifera, and bugs collected within the city of Chigasaki in 1970 and then successively reared indoors for a long time as the susceptible populations of Sogatella furcifera were used.

Data set [8] deals with Ctenocephalides felis. In words: Pest control test of Ctenocephalides felis on the body surface of a dog. To be noted: 72 h, read-out: mortality of insects. How it is done:
Test Example 26 Pest Control Test of Ctenocephalides felis
Three petri dishes with a diameter of 9 cm and a height of 1 cm were adhered to the back of a dog. Compound 1-20 of the present invention was dissolved in ethanol so as to be 5.35 mg/mL, and the mixture was added dropwise to the body surface of the dog in the petri dish. The petri dish was sufficiently dried, and then twenty insects of Ctenocephalides felis were released thereto. Each dog was housed in a cage and reared under conditions of 10 hours of light period and 14 hours of dark period at 23° C. Three days after the release, the petri dishes were detached therefrom to measure the numbers of living and dead insects of Ctenocephalides felis and blood-sucking individuals, and the mortality of insects was calculated according to the following equation.
Mortality of insects(%)={number of dead insects/(number of survived insects+number of dead insects)}×100

Where [9] appears, read: 72 h, read-out: mortality of larvae.
[10] abbreviates: read-out: % Mortality, Test Example1 Plutella xylostella.
[11] abbreviates: read-out: % Mortality, Test Example4 Aulacophora femoralis.

Each structure is given as a SMILES string. Like-named read-outs stand apart in the source and are kept apart here.

`FC(F)(F)C(=S)/N=c1\ccccn1Cc1ccc(Cl)nc1` [Compound 1-20, N-[1-((6-chloropyridin-3-yl)methyl)pyridin-2(1H)-ylidene]-2,2,2-trifluoroethanethioamide]: the mortality (in general, the percentage killed) at 100 ppm in data set [1] (setting [9]) was not below 80%; in data set [1] (setting [10]) it was 100%; in data set [2] (setting [9]), not below 80%; in data set [2] (read-out: % Mortality, Test Example2 Spodoptera litura), 90%. Besides, the mortality at 5 ppm in data set [1] (setting [10]) came out at 50%; in data set [3] (setting [11]), 100%. In addition, the mortality at 20 ppm was 100% in data set [1] (setting [10]), not below 80% in data set [4] and not below 80% in data set [5]. The mortality at 10 ppm in data set [3] (72 h, read-out: mortality of adults) was not below 80%. The mortality at 1.25 ppm in data set [3] (setting [11]) is 100%. Further, the “Insecticidal effects against Nilaparvata lugens (mortality of larvae %), Susceptible populations three days after the treatment” value in data set [6] (Rate 0.01 mg/pot) was 95%; in data set [6] (Rate 0.05 mg/pot) it was 96%. Further, the “Insecticidal effects against Sogatella furcifera (mortality of larvae %), Susceptible populations six days after the treatment” value in data set [7] (Rate 0.005 mg/pot) was found to be 75%; in data set [7] (Rate 0.01 mg/pot), 88%. Further, the mortality at 5350 µg/mL in data set [8] worked out at 100%.

The record behind these values is patent US20150005347A1, “NITROGEN-CONTAINING HETEROCYCLIC DERIVATIVE HAVING 2-IMINO GROUP AND PEST CONTROL AGENT INCLUDING THE SAME” (MEIJI SEIKA PHARMA CO., LTD., priority 2012, published 2015).
